Results as given in US10988477B2 (Merck Patent GmbH, priority 2018, dated 2021).

Columns and labels:
[1] = target: intracellular GCN2 (phosphorylation of the GCN2 substrate eIF2α) (Homo sapiens, UniProt Q9P2K8); test: GCN2 cellular inhibition assay (AlphaScreen SureFire P-eIF2α Ser51, borrelidin-treated U2OS cells); assay type: cell-based; conditions: compounds of Formula IV; biomarker assay, phosphorylated eIF2α Ser51 in borrelidin-treated U2OS cells
Summary of the method: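 Phospho-eIF2α (Ser51) in lysates was quantified by AlphaScreen SureFire after a 1 h, 37 °C treatment of U2OS cells with 10 μM borrelidin and compound at 4-fold dilutions starting from 40 μM final. Inhibition expressed in percent against wells stimulated by borrelidin alone.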

[2] = target: GCN2 kinase (Homo sapiens, UniProt Q9P2K8); test: GCN2 enzyme inhibition assay (Transcreener ADP2 fluorescence polarization); assay type: biochemical; conditions: Enzyme activity for compounds of Formula IV; Ki(app), 280 μM ATP, 25° C.
Summary of the method: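 FP detection of ADP (antibody plus Alexa633 tracer) after a 1 h, 25 °C kinase reaction. Enzyme 4 nM, ATP 280 μM, (RS)7 peptide 200 μM, Tris pH 7.5 buffer with MgCl2 and DTT. Percent inhibition fitted by non-linear tight-binding algorithm for IC50 and Ki(app).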

Chain of intracellular GCN2 (phosphorylation of the GCN2 substrate eIF2α) (Q9P2K8 whole entry): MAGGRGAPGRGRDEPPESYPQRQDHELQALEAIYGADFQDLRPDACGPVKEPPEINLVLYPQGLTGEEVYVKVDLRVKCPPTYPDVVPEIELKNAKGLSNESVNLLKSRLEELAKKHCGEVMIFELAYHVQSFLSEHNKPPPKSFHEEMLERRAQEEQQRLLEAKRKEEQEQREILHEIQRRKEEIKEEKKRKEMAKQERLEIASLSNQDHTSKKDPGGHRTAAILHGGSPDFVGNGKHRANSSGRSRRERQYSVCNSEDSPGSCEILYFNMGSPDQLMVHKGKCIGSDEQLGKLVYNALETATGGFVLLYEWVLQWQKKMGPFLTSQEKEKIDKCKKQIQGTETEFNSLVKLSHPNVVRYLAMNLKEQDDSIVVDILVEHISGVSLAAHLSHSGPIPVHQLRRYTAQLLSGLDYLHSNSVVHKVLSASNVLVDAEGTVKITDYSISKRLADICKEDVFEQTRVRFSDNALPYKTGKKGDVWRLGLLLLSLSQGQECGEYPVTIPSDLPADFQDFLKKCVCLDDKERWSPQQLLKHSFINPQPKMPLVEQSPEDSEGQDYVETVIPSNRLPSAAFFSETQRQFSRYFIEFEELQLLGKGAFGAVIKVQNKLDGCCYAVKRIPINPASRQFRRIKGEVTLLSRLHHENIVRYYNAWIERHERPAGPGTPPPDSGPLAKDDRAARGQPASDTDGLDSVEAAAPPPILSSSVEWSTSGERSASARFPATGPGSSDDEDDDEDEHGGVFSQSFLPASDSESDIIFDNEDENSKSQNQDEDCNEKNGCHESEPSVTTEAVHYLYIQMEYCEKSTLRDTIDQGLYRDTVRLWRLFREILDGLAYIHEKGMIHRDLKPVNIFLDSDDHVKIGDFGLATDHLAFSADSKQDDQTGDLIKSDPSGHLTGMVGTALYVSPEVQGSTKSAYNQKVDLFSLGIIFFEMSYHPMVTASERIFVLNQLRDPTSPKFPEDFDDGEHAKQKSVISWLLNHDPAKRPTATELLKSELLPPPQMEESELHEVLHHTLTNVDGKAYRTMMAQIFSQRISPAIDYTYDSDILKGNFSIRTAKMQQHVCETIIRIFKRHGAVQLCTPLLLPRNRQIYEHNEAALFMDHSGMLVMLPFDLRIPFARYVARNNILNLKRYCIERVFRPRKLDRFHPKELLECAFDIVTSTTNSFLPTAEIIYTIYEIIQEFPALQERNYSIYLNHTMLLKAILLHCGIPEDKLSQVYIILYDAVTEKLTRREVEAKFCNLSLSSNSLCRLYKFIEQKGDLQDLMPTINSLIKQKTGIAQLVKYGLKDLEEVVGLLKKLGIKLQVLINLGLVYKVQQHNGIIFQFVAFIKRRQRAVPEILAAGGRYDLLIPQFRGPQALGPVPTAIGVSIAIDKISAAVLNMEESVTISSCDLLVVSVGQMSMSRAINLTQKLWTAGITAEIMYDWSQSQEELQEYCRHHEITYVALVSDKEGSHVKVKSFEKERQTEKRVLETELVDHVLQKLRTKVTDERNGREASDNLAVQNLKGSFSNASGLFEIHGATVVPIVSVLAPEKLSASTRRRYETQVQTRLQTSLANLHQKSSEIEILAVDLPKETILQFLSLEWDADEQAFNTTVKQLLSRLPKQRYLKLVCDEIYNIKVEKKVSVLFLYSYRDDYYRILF
Chain of GCN2 kinase (Q9P2K8 whole entry): as above

| IC50 [1] | Ki [2] | Structure (SMILES) |
| --- | --- | --- |
| 0.5 to 5 µM | < 0.01 µM | CC1CN(c2nccc(-c3cnc4cnc(C(F)(F)F)cn34)n2)CC(c2cn[nH]c2)O1 (single isomer, unassigned) [IV-200, 2-Methyl-6-(1H-pyrazol-4-yl)-4-(4-(6-(trifluoromethyl)imidazo[1,2-a]pyrazin-3-yl)pyrimidin-2-yl)morpholine] |
| < 0.5 µM | < 0.01 µM | CC1CN(c2nccc(-c3cnc4cnc(C(F)(F)F)cn34)n2)CC(c2cn[nH]c2)O1 (single isomer, unassigned) [IV-201, 2-Methyl-6-(1H-pyrazol-4-yl)-4-(4-(6-(trifluoromethyl)imidazo[1,2-a]pyrazin-3-yl)pyrimidin-2-yl)morpholine] |
| 0.5 to 5 µM | 0.01 to 0.1 µM | CC1CN(c2nccc(-c3cnc4cnc(C(F)(F)F)cn34)n2)CC(c2cn[nH]c2)O1 (single isomer, unassigned) [IV-202, 2-Methyl-6-(1H-pyrazol-4-yl)-4-(4-(6-(trifluoromethyl)imidazo[1,2-a]pyrazin-3-yl)pyrimidin-2-yl)morpholine] |
| 0.5 to 5 µM | 0.01 to 0.1 µM | CC1CN(c2ccnc(-c3cnc4cnc(Cl)cn34)n2)CC(c2cn[nH]c2)N1 (single isomer, unassigned) [IV-213, 6-Chloro-3-(4-(3-methyl-5-(1H-pyrazol-4-yl)piperazin-1-yl)pyrimidin-2-yl)imidazo[1,2-a]pyrazine] |
| < 0.5 µM | < 0.01 µM | CC1CN(c2ccnc(-c3cnc4cnc(Cl)cn34)n2)CC(c2cn[nH]c2)N1 (single isomer, unassigned) [IV-214, 6-Chloro-3-(4-(3-methyl-5-(1H-pyrazol-4-yl)piperazin-1-yl)pyrimidin-2-yl)imidazo[1,2-a]pyrazine] |
| 0.5 to 5 µM | < 0.01 µM | CC1CN(c2ccnc(-c3cnc4cnc(Cl)cn34)n2)CC(c2cn[nH]c2)O1 (single isomer, unassigned) [IV-216, 4-(2-(6-Chloroimidazo[1,2-a]pyrazin-3-yl)pyrimidin-4-yl)-2-methyl-6-(1H-pyrazol-4-yl)morpholine] |
| < 0.5 µM | < 0.01 µM | CC1CN(c2ccnc(-c3cnc4cnc(Cl)cn34)n2)CC(c2cn[nH]c2)O1 (single isomer, unassigned) [IV-217, 4-(2-(6-Chloroimidazo[1,2-a]pyrazin-3-yl)pyrimidin-4-yl)-2-methyl-6-(1H-pyrazol-4-yl)morpholine] |
| 0.5 to 5 µM | < 0.01 µM | CC1C(c2cn[nH]c2)NCCN1c1ccnc(-c2cnc3cnc(Cl)cn23)n1 (single isomer, unassigned) [IV-230, 6-Chloro-3-(4-(2-methyl-3-(1H-pyrazol-4-yl)piperazin-1-yl)pyrimidin-2-yl)imidazo[1,2-a]pyrazine] |
| > 5 µM | 0.1 to 1 µM | CC1C(c2cn[nH]c2)OCCN1c1ccnc(-c2cnc3cnc(Cl)cn23)n1 (single isomer, unassigned) [IV-245, 4-(2-(6-Chloroimidazo[1,2-a]pyrazin-3-yl)pyrimidin-4-yl)-3-methyl-2-(1H-pyrazol-4-yl)morpholine] |
| < 0.5 µM | < 0.01 µM | CC1CN(c2ccnc(-c3cnc4cnc(Cl)cn34)n2)C(C)C(c2cn[nH]c2)N1 (single isomer, unassigned) [IV-247, 6-Chloro-3-(4-(2,5-dimethyl-3-(1H-pyrazol-4-yl)piperazin-1-yl)pyrimidin-2-yl)imidazo[1,2-a]pyrazine] |
| < 0.5 µM | < 0.01 µM | CC1CN(c2ccnc(-c3cnc4cnc(Br)cn34)n2)C(C)C(c2cn[nH]c2)N1 (single isomer, unassigned) [IV-288, 6-Bromo-3-(4-(2,5-dimethyl-3-(1H-pyrazol-4-yl)piperazin-1-yl)pyrimidin-2-yl)imidazo[1,2-a]pyrazine] |
| < 0.5 µM | < 0.01 µM | CC1CC(c2cn[nH]c2)C(C)N(c2ccnc(-c3cnc4cnc(C(F)(F)F)cn34)n2)C1 (single isomer, unassigned) [IV-311] |
| < 0.5 µM | < 0.01 µM | CC1C(c2cn[nH]c2)OCCN1c1ccnc(-c2cnc3cnc(C(F)(F)F)cn23)n1 (single isomer, unassigned) [IV-318, 3-Methyl-2-(1H-pyrazol-4-yl)-4-(2-(6-(trifluoromethyl)imidazo[1,2-a]pyrazin-3-yl)pyrimidin-4-yl)morpholine] |
| 0.5 to 5 µM | 0.01 to 0.1 µM | CC1CN(c2ccnc(-c3cnc4cnc(C(F)(F)F)cn34)n2)C(C)C(c2cn[nH]c2)N1 (single isomer, unassigned) [IV-345, 3-(4-(2,5-Dimethyl-3-(1H-pyrazol-4-yl)piperazin-1-yl)pyrimidin-2-yl)-6-(trifluoromethyl)imidazo[1,2-a]pyrazine] |
| 0.5 to 5 µM | 0.1 to 1 µM | CC1C(c2cn[nH]c2)NCCN1c1ccnc(-c2cnc3cnc(Br)cn23)n1 (single isomer, unassigned) [IV-350, 6-Bromo-3-(4-(2-methyl-3-(1H-pyrazol-4-yl)piperazin-1-yl)pyrimidin-2-yl)imidazo[1,2-a]pyrazine] |
| < 0.5 µM | < 0.01 µM | CC1C(c2cn[nH]c2)NCCN1c1ccnc(-c2cnc3cnc(Br)cn23)n1 (single isomer, unassigned) [IV-351, 6-Bromo-3-(4-(2-methyl-3-(1H-pyrazol-4-yl)piperazin-1-yl)pyrimidin-2-yl)imidazo[1,2-a]pyrazine] |
| > 5 µM | 0.1 to 1 µM | CC1C(c2cn[nH]c2)NCCN1c1ccnc(-c2cnc3cnc(C(F)(F)F)cn23)n1 (single isomer, unassigned) [IV-357, 3-(4-(2-Methyl-3-(1H-pyrazol-4-yl)piperazin-1-yl)pyrimidin-2-yl)-6-(trifluoromethyl)imidazo[1,2-a]pyrazine] |
| 0.5 to 5 µM | < 0.01 µM | CC1C(c2cn[nH]c2)NCCN1c1ccnc(-c2cnc3cnc(C(F)(F)F)cn23)n1 (single isomer, unassigned) [IV-358, 3-(4-(2-Methyl-3-(1H-pyrazol-4-yl)piperazin-1-yl)pyrimidin-2-yl)-6-(trifluoromethyl)imidazo[1,2-a]pyrazine] |
| < 0.5 µM | < 0.01 µM | Brc1cn2c(-c3nccc(N4CCCC(c5cn[nH]c5)C4)n3)cnc2cn1 (single isomer, unassigned) [IV-360, 3-(4-(3-(1H-Pyrazol-4-yl)piperidin-1-yl)pyrimidin-2-yl)-6-bromoimidazo[1,2-a]pyrazine] |
| < 0.5 µM | < 0.01 µM | Brc1cn2c(-c3nccc(N4CCCC(c5cn[nH]c5)C4)n3)cnc2cn1 (single isomer, unassigned) [IV-361, 3-(4-(3-(1H-Pyrazol-4-yl)piperidin-1-yl)pyrimidin-2-yl)-6-bromoimidazo[1,2-a]pyrazine] |
| 0.5 to 5 µM | 0.01 to 0.1 µM | Brc1cn2c(-c3nccc(N4CCCC(c5c[nH]cn5)C4)n3)cnc2cn1 (single isomer, unassigned) [IV-362, 3-(4-(3-(1H-Imidazol-4-yl)piperidin-1-yl)pyrimidin-2-yl)-6-bromoimidazo[1,2-a]pyrazine] |
| 0.5 to 5 µM | 0.01 to 0.1 µM | CC1CN(c2ccnc(-c3cnc4cnc(Br)cn34)n2)CC(c2cn[nH]c2)N1 (single isomer, unassigned) [IV-364, 6-Bromo-3-(4-(3-methyl-5-(1H-pyrazol-4-yl)piperazin-1-yl)pyrimidin-2-yl)imidazo[1,2-a]pyrazine] |
| 0.5 to 5 µM | < 0.01 µM | CC1CN(c2ccnc(-c3cnc4cnc(Br)cn34)n2)CC(c2cn[nH]c2)N1 (single isomer, unassigned) [IV-365, 6-Bromo-3-(4-(3-methyl-5-(1H-pyrazol-4-yl)piperazin-1-yl)pyrimidin-2-yl)imidazo[1,2-a]pyrazine] |
| > 5 µM | 0.1 to 1 µM | CC1CC(CS(C)(=N)=O)C(C)N(c2ccnc(-c3cnc4cnc(C(F)F)cn34)n2)C1 (single isomer, unassigned) [IV-366, ((1-(2-(6-(Difluoromethyl)imidazo[1,2-a]pyrazin-3-yl)pyrimidin-4-yl)-2,5-dimethylpiperidin-3-yl)methyl)(imino)(methyl)-λ^6-sulfanone] |
| > 5 µM | 0.1 to 1 µM | CC1CC(CS(C)(=N)=O)C(C)N(c2ccnc(-c3cnc4cnc(C(F)F)cn34)n2)C1 (single isomer, unassigned) [IV-368, ((1-(2-(6-(Difluoromethyl)imidazo[1,2-a]pyrazin-3-yl)pyrimidin-4-yl)-2,5-dimethylpiperidin-3-yl)methyl)(imino)(methyl)-λ^6-sulfanone] |
| 0.5 to 5 µM | < 0.01 µM | CC1CN(c2nccc(-c3cnc4cnc(C(F)(F)F)cn34)n2)C(C)C(c2cn[nH]c2)N1 (single isomer, unassigned) [IV-369, 3-(2-(2,5-Dimethyl-3-(1H-pyrazol-4-yl)piperazin-1-yl)pyrimidin-4-yl)-6-(trifluoromethyl)imidazo[1,2-a]pyrazine] |
| 0.5 to 5 µM | 0.01 to 0.1 µM | Cc1nc(C2CCCN(c3ccnc(-c4cnc5cnc(Br)cn45)n3)C2)c[nH]1 (single isomer, unassigned) [IV-374, 6-Bromo-3-(4-(3-(2-methyl-1H-imidazol-4-yl)piperidin-1-yl)pyrimidin-2-yl)imidazo[1,2-a]pyrazine] |
| < 0.5 µM | < 0.01 µM | Cc1nc(C2CCCN(c3ccnc(-c4cnc5cnc(Br)cn45)n3)C2)c[nH]1 (single isomer, unassigned) [IV-375, 6-Bromo-3-(4-(3-(2-methyl-1H-imidazol-4-yl)piperidin-1-yl)pyrimidin-2-yl)imidazo[1,2-a]pyrazine] |
